In ChEMBL document CHEMBL5338747, “Discovery of Quaternized Pyridine-Thiazole-Pleuromutilin Derivatives with Broad-Spectrum Antibacterial and Potent Anti-MRSA Activity” (J Med Chem, 2023):
Converted amounts (≈) assume the structure as drawn.

Legend:
[1] = tested on: Staphylococcus aureus; experiment: Antibacterial activity against methicillin-resistant Staphylococcus aureus ATCC 33591 assessed as inhibition of bacterial growth incubated for 24 hrs by broth microdilution method; format: functional
[2] = tested on: Staphylococcus aureus; experiment: Antibacterial activity against methicillin-resistant Staphylococcus aureus ATCC 43300 assessed as inhibition of bacterial growth incubated for 24 hrs by broth microdilution method; format: functional
[3] = tested on: Staphylococcus aureus; experiment: Antibacterial activity against […] assessed as inhibition of bacterial growth incubated for 24 hrs by broth microdilution method; format: functional; settings: ATCC 29213
[4] = tested on: Staphylococcus epidermidis; experiment: Antibacterial activity against methicillin-resistant Staphylococcus epidermidis ATCC 51625 assessed as inhibition of bacterial growth incubated for 24 hrs by broth microdilution method; format: functional
[5] = tested on: Acinetobacter baumannii; experiment: Antibacterial activity against Acinetobacter baumannii ATCC 19606 assessed as inhibition of bacterial growth incubated for 24 hrs by broth microdilution method; format: functional
[6] = tested on: Salmonella enterica; experiment: Antibacterial activity against Salmonella enterica ATCC 14028 assessed as inhibition of bacterial growth incubated for 24 hrs by broth microdilution method; format: functional
[7] = tested on: Escherichia coli; experiment: Antibacterial activity against Escherichia coli ATCC 25922 assessed as inhibition of bacterial growth incubated for 24 hrs by broth microdilution method; format: functional
[8] = tested on: Escherichia coli; experiment: Antibacterial activity against Escherichia coli CMCC 44103 assessed as inhibition of bacterial growth incubated for 24 hrs by broth microdilution method; format: functional
[9] = tested on: Staphylococcus aureus; experiment: Antibacterial activity against methicillin-resistant Staphylococcus aureus 171 assessed as inhibition of bacterial growth incubated for 24 hrs by broth microdilution method; format: functional
[10] = tested on: Staphylococcus aureus; experiment: Antibacterial activity against methicillin-resistant Staphylococcus aureus 575 assessed as inhibition of bacterial growth incubated for 24 hrs by broth microdilution method; format: functional
[11] = tested on: Staphylococcus aureus; experiment: Antibacterial activity against methicillin-resistant Staphylococcus aureus 206 assessed as inhibition of bacterial growth incubated for 24 hrs by broth microdilution method; format: functional
[12] = tested on: Staphylococcus aureus; experiment: Antibacterial activity against methicillin-resistant Staphylococcus aureus 222 assessed as inhibition of bacterial growth incubated for 24 hrs by broth microdilution method; format: functional
[13] = tested on: Staphylococcus aureus; experiment: Antibacterial activity against methicillin-resistant Staphylococcus aureus 596 assessed as inhibition of bacterial growth incubated for 24 hrs by broth microdilution method; format: functional
[14] = tested on: Enterococcus; experiment: Antibacterial activity against vancomycin-resistant Enterococcus 80 assessed as inhibition of bacterial growth incubated for 24 hrs by broth microdilution method; format: functional
[15] = tested on: Pseudomonas aeruginosa; experiment: Antibacterial activity against multidrug-resistant Pseudomonas aeruginosa 126 assessed as inhibition of bacterial growth incubated for 24 hrs by broth microdilution method; format: functional
[16] = tested on: Klebsiella pneumoniae; experiment: Antibacterial activity against multidrug-resistant Klebsiella pneumoniae 893 assessed as inhibition of bacterial growth incubated for 24 hrs by broth microdilution method; format: functional
[17] = tested on: Acinetobacter baumannii; experiment: Antibacterial activity against carbapenem-resistant Acinetobacter baumannii 882 assessed as inhibition of bacterial growth incubated for 24 hrs by broth microdilution method; format: functional
[18] = Aqueous solubility of the compound in physiological saline measured after 12 hrs by UV spectrophotometric analysis; format: physicochemical
[19] = Cytotoxicity against human HEK293 cells assessed as reduction in cell viability measured after 48 hrs by CCK8 assay; format: toxicity, cell-based
[20] = Cytotoxicity against human A549 cells assessed as reduction in cell viability measured after 48 hrs by CCK8 assay; format: toxicity, cell-based
[21] = Cytotoxicity against human HepG2 cells assessed as reduction in cell viability measured after 48 hrs by CCK8 assay; format: toxicity, cell-based
[22] = tested on: Mesomycoplasma hyopneumoniae; experiment: Anti-mycoplasma activity against Mycoplasma hyopneumoniae J NCTC10110 assessed as inhibition of mycoplasma growth measured after 7 days by broth microdilution method; format: functional; settings: J NCTC10110, 168 h, time 7 day
[23] = tested on: Mesomycoplasma hyopneumoniae; experiment: Anti-mycoplasma activity against Mycoplasma hyopneumoniae LH assessed as inhibition of mycoplasma growth measured after 7 days by broth microdilution method; format: functional; settings: 168 h, time 7 day
[24] = tested on: Mesomycoplasma hyorhinis; experiment: Anti-mycoplasma activity against Mycoplasma hyorhinis BTS-7 NCTC10130 assessed as inhibition of mycoplasma growth measured after 7 days by broth microdilution method; format: functional; settings: BTS-7 NCTC10130, 168 h, time 7 day
[25] = tested on: Mycoplasmoides gallisepticum; experiment: Anti-mycoplasma activity against Mycoplasma gallisepticum R NCTC10115 assessed as inhibition of mycoplasma growth measured after 7 days by broth microdilution method; format: functional; settings: R NCTC10115, 168 h, time 7 day
[26] = tested on: Mycoplasmopsis synoviae; experiment: Anti-mycoplasma activity against Mycoplasma synoviae WVU1853 NCTC10124 assessed as inhibition of mycoplasma growth measured after 7 days by broth microdilution method; format: functional; settings: WVU1853 NCTC10124, 168 h, time 7 day
[27] = tested on: Mycoplasmoides pneumoniae; experiment: Anti-mycoplasma activity against Mycoplasma pneumoniae M129 ATCC15531 assessed as inhibition of mycoplasma growth measured after 7 days by broth microdilution method; format: functional; settings: M129 ATCC15531, 168 h, time 7 day
[28] = tested on: Metamycoplasma hominis; experiment: Anti-mycoplasma activity against Mycoplasma hominis PG-21 ATCC23114 assessed as inhibition of mycoplasma growth measured after 7 days by broth microdilution method; format: functional; settings: PG-21 ATCC23114, 168 h, time 7 day
[29] = tested on: Mycoplasma genitalium; experiment: Anti-mycoplasma activity against Mycoplasma genitalium G37 ATCC33530 assessed as inhibition of mycoplasma growth measured after 7 days by broth microdilution method; format: functional; settings: Mycoplasmoides genitalium, G37 ATCC33530, 168 h; time 7 day

Structure (SMILES)	MIC [1]	MIC [2]	MIC [3]	MIC [4]	MIC [5]	MIC [6]	MIC [7]	MIC [8]	MIC [9]	MIC [10]	MIC [11]	MIC [12]	MIC [13]	MIC [14]	MIC [15]	MIC [16]	MIC [17]	solubility at 12 h [18]	other results
Br.C=C[C@]1(C)C[C@@H](OC(=O)CSc2nc(-c3cc[n+](Cc4ccc([N+](=O)[O-])cc4)cc3)cs2)[C@]2(C)[C@H](C)CC[C@]3(CCC(=O)[C@H]32)[C@@H](C)[C@@H]1O	1 µg/mL	0.5 µg/mL	0.125 µg/mL	2 µg/mL	2 µg/mL	2 µg/mL	1 µg/mL	0.5 µg/mL	64 µg/mL	16 µg/mL	16 µg/mL	2 µg/mL	2 µg/mL	8 µg/mL	8 µg/mL	16 µg/mL	16 µg/mL	754 µM	CC50 at 48 h [19]: 86.7 µM; CC50 at 48 h [20]: > 100 µM; CC50 at 48 h [21]: 75.8 µM
C=C[C@]1(C)C[C@@H](OC(=O)CSc2nc(-c3cc[n+](Cc4ccc(OC)cc4)cc3)cs2)[C@]2(C)[C@H](C)CC[C@]3(CCC(=O)[C@H]32)[C@@H](C)[C@@H]1O.[Br-]	1 µg/mL	1 µg/mL	0.5 µg/mL	4 µg/mL	2 µg/mL	0.5 µg/mL	0.5 µg/mL	1 µg/mL	16 µg/mL	32 µg/mL	16 µg/mL	4 µg/mL	8 µg/mL	2 µg/mL	64 µg/mL	64 µg/mL	8 µg/mL	653 µM	CC50 at 48 h [19]: 95.4 µM; CC50 at 48 h [20]: 87.4 µM; CC50 at 48 h [21]: > 100 µM
C=C[C@]1(C)C[C@@H](OC(=O)CS[C@@H]2C[C@H]3CC[C@@H](C2)N3C)[C@]2(C)[C@H](C)CC[C@]3(CCC(=O)[C@H]32)[C@@H](C)[C@@H]1O [RETAPAMULIN]	32 µg/mL (≈ 61.8 µM)	16 µg/mL (≈ 30.9 µM)	4 µg/mL (≈ 7.73 µM)	64 µg/mL (≈ 124 µM)	4 µg/mL (≈ 7.73 µM)	128 µg/mL (≈ 247 µM)	32 µg/mL (≈ 61.8 µM)	32 µg/mL (≈ 61.8 µM)	128 µg/mL (≈ 247 µM)	64 µg/mL (≈ 124 µM)	128 µg/mL (≈ 247 µM)	32 µg/mL (≈ 61.8 µM)	32 µg/mL (≈ 61.8 µM)	> 128 µg/mL	128 µg/mL (≈ 247 µM)	64 µg/mL (≈ 124 µM)	64 µg/mL (≈ 124 µM)	289 µM (≈ 150 µg/mL)	CC50 at 48 h [19]: 83.8 µM; CC50 at 48 h [20]: > 100 µM; CC50 at 48 h [21]: 76.5 µM
C=C[C@]1(C)C[C@@H](OC(=O)CSCCN(CC)CC)[C@]2(C)[C@H](C)CC[C@]3(CCC(=O)[C@H]32)[C@@H](C)[C@@H]1O [TIAMULIN]	–	–	–	–	–	–	–	–	–	–	–	–	–	–	–	–	–	227 µM (≈ 112 µg/mL)	MIC [22]: 0.03 µg/mL (≈ 0.0608 µM); MIC [23]: 0.015 µg/mL (≈ 0.0304 µM); MIC [24]: 0.03 µg/mL (≈ 0.0608 µM); MIC [25]: 0.125 µg/mL (≈ 0.253 µM); MIC [26]: 2 µg/mL (≈ 4.05 µM); MIC [27]: 0.125 µg/mL (≈ 0.253 µM); MIC [28]: 0.25 µg/mL (≈ 0.506 µM); MIC [29]: 0.03 µg/mL (≈ 0.0608 µM)
C=C[C@]1(C)C[C@@H](OC(=O)CSc2nc(-c3cc[n+](Cc4ccc(C(F)(F)F)cc4)cc3)cs2)[C@]2(C)[C@H](C)CC[C@]3(CCC(=O)[C@H]32)[C@@H](C)[C@@H]1O.[Br-]	2 µg/mL	4 µg/mL	0.25 µg/mL	2 µg/mL	2 µg/mL	2 µg/mL	1 µg/mL	2 µg/mL	–	–	–	–	–	–	–	–	–	899 µM	–
C=C[C@]1(C)C[C@@H](OC(=O)CSc2nc(-c3cc[n+](CCCCCCCCCC)cc3)cs2)[C@]2(C)[C@H](C)CC[C@]3(CCC(=O)[C@H]32)[C@@H](C)[C@@H]1O.[Br-]	1 µg/mL	2 µg/mL	0.25 µg/mL	2 µg/mL	4 µg/mL	1 µg/mL	2 µg/mL	4 µg/mL	–	–	–	–	–	–	–	–	–	203 µM	–
C=C[C@]1(C)C[C@@H](OC(=O)CSc2nc(-c3cc[n+](Cc4cc(F)cc(F)c4)cc3)cs2)[C@]2(C)[C@H](C)CC[C@]3(CCC(=O)[C@H]32)[C@@H](C)[C@@H]1O.[Br-]	64 µg/mL	64 µg/mL	64 µg/mL	64 µg/mL	8 µg/mL	16 µg/mL	16 µg/mL	32 µg/mL	–	–	–	–	–	–	–	–	–	803 µM	–
COc1c(N2C[C@@H]3CCCN[C@@H]3C2)c(F)cc2c(=O)c(C(=O)O)cn(C3CC3)c12 [MOXIFLOXACIN]	1 µg/mL (≈ 2.49 µM)	0.25 µg/mL (≈ 0.623 µM)	0.062 µg/mL (≈ 0.154 µM)	0.5 µg/mL (≈ 1.25 µM)	2 µg/mL (≈ 4.98 µM)	2 µg/mL (≈ 4.98 µM)	0.125 µg/mL (≈ 0.311 µM)	0.25 µg/mL (≈ 0.623 µM)	32 µg/mL (≈ 79.7 µM)	8 µg/mL (≈ 19.9 µM)	4 µg/mL (≈ 9.96 µM)	0.5 µg/mL (≈ 1.25 µM)	2 µg/mL (≈ 4.98 µM)	0.5 µg/mL (≈ 1.25 µM)	8 µg/mL (≈ 19.9 µM)	16 µg/mL (≈ 39.9 µM)	32 µg/mL (≈ 79.7 µM)	–	–
C=C[C@]1(C)C[C@@H](OC(=O)CSc2nc(-c3cc[n+](Cc4ccsc4)cc3)cs2)[C@]2(C)[C@H](C)CC[C@]3(CCC(=O)[C@H]32)[C@@H](C)[C@@H]1O.[Br-]	1 µg/mL	0.5 µg/mL	0.25 µg/mL	1 µg/mL	8 µg/mL	2 µg/mL	1 µg/mL	0.5 µg/mL	–	–	–	–	–	–	–	–	–	702 µM	–
C=C[C@]1(C)C[C@@H](OC(=O)CSc2nc(-c3cc[n+](Cc4ccc(-c5ccccc5)cc4)cc3)cs2)[C@]2(C)[C@H](C)CC[C@]3(CCC(=O)[C@H]32)[C@@H](C)[C@@H]1O.[Br-]	2 µg/mL	1 µg/mL	0.5 µg/mL	2 µg/mL	2 µg/mL	2 µg/mL	1 µg/mL	1 µg/mL	–	–	–	–	–	–	–	–	–	271 µM	–
C=C[C@]1(C)C[C@@H](OC(=O)CSc2nc(-c3cc[n+](CCCC)cc3)cs2)[C@]2(C)[C@H](C)CC[C@]3(CCC(=O)[C@H]32)[C@@H](C)[C@@H]1O.[Br-]	2 µg/mL	4 µg/mL	4 µg/mL	4 µg/mL	16 µg/mL	2 µg/mL	16 µg/mL	4 µg/mL	–	–	–	–	–	–	–	–	–	672 µM	–
